Laboratory results from patent US7705053B2, “Benzamide derivative” (Chugai Seiyaku Kabushiki Kaisha, priority 2003, dated 2010).

What was measured:
[1] = test system: Human umbilical vein endothelial cells (HUVEC); test: Cell proliferation assay (HUVEC); assay type: cell-based; conditions: 72 hours, WST-1, read-out: 50% growth inhibition concentration (IC50 value) HUVEC
Description: (§1) The test compound was serially diluted with DMSO, and then diluted 1:50 with a Ca^2+,Mg^2+-free phosphate-buffered physiological saline. The resulting dilution (10 μl) was dispensed into a 96-well plate. Human umbilical vein endothelial cells (HUVEC, purchased from Clonetics) were suspended in PRMI 1640 medium supplemented with 10% bovine fetal serum, 30 μg/mL vascular endothelial cell growth supplement, and 50 μg/mL heparin. Human lung carcinoma cell line Calu-6 was suspended in MEM medium supplemented with 10% bovine fetal serum, 0.1 mM nonessential amino acid, and 1 mM sodium pyruvate. Each cell suspension (190 μL) was dispensed into the plate containing the test compound such that the cell count per well was 3,000 cells. The plate was incubated in a CO2 incubator (37° C., 5% CO2). After 72 hours, 20 μL WST-1 (produced by Roche Diagnostics) was added to each well and, after 2 hours of incubation, the absorbance at 450 nm (reference wavelength: 650 nm) was measured. The 50% growth inhibition concentration (IC50 value) of the test compound was calculated from the inhibition rate obtained when the test compound was added, in comparison with the reference value obtained when the test compound was not added.
(§2) The IC50 values, for HUVEC and Calu-6, of representative examples of the compounds of the present invention are shown in Table 1.

[2] = test system: Human lung carcinoma cell line Calu-6; test: Cell proliferation assay (Calu-6); assay type: cell-based; conditions: Calu-6, 72 hours, WST-1, read-out: 50% growth inhibition concentration (IC50 value) Calu-6
Description: as §1, §2

HUVEC = test: Tube formation assay; assay type: cell-based; conditions: Homo sapiens, 264 h, 11 days of incubation, CD31 staining, read-out: capillary-like tube formation inhibition rates (%)
Description: An angiogenesis measurement kit (produced by KURABO) was charged with the test compound at final concentration of 20 μM, and incubated in a CO2 incubator (37° C., 5%). After 11 days of incubation, capillary-like tubes formed were fixed with 70% ethanol and visualized with a CD31 staining kit (produced by KURABO). Under a microscope, stain images of the wells were photographed, stored as an image file, and measured for the area of capillary-like tube formation by use of angiogenesis quantitative determination software of KURABO. The inhibition rates (%) of the test compound-charged wells were calculated, with the control taken as 100%.
The capillary-like tube formation inhibiting rates at 20 μM, against HUVEC, of representative examples of the compounds of the present invention are shown in Table 2.

[3] = test system: human lung carcinoma cell line Calu-6; test: Antitumor test (Calu-6 xenograft); assay type: in vivo, Balb/c nude mice; conditions: 600 mg/kg, orally once daily for 11 days, mice
Description: (§3) A cell suspension of human lung carcinoma cell line Calu-6 was prepared using Hanks' balanced salt solution, and 5.0×10^6 of the cells were implanted subcutaneously in the flank region of female Balb/c nude mice. When the volume of the tumor reached 200 to 250 mm^3, the test compound was orally administered once daily for 11 days. The tumor volume was calculated from the equation π/6×(long diameter×short diameter×thickness). The tumor growth inhibition rate was calculated from changes in the tumor volume in the test compound treatment group relative to changes in the tumor volume in the control group.
(§4) The results of the antitumor test of compound 1-1-1 and compound 2-1-1, as representative examples of the compounds of the present invention, are shown in FIGS. 1-(A) and 1-(B) and 2-(A) and 2-(B).

[4] = test system: blood vessels in the tumor tissue (Calu-6 xenograft); test: Measurement of the number of blood vessels in the tumor; assay type: in vivo, Balb/c nude mice; conditions: 600 mg/kg, orally once daily for 11 days, mice, relative to control group
Description: Measurement of the Number of Blood Vessels in the Tumor
5.0×10^6 Cells of human lung carcinoma cell line Calu-6 were implanted subcutaneously in the flank region of female Balb/c nude mice. When the volume of tumor reached 200 to 250 mm^3, the test compound was orally administered once daily for 11 days. Twenty-four hours after the final administration, xenograft tissue was removed from the mice, and a middle portion of the long diameter of the tumor was embedded, as a block 2 to 3 mm thick, in O.C.T. Compound, and preserved as a frozen tissue specimen. Frozen sections were prepared, and blood vessels in the tumor tissue were stained by an immunohistological method using anti-mouse CD31 antibody. The stained tissue was photographed under a microscope, and the images were stored as an image file. The number of the stained blood vessels was measured by Image Pro (Promega). The decrease rate of blood vessel density was calculated as a decrease rate relative to the blood vessel density in the control group.
The decrease rates of the blood vessel density in the tumor tissue following treatment with 600 mg/kg of compound 1-1-1 and compound 2-1-1, as representative examples of the compounds of the present invention, are shown in Table 3.

[5] = Body weight and toxicity findings in the antitumor test; assay type: in vivo; conditions: 600 mg/kg, orally once daily for 11 days
Description: as §3, §4

Structure (SMILES)	IC50 [2]	IC50 [1]	inhibition at 20 µM (HUVEC)	tumor growth inhibition rates (TGI) [3]	Decrease (%) in intratumor blood vessel density [4]	body weights of the mice [5]	findings of toxicity [5]
COc1ccc(C(N)=O)cc1C(=O)Nc1ccc(Cl)cc1 [Compound 1-1-1, 3-N-(4-chlorophenyl)-4-methoxyisophthalamide]	> 100000 nM	2270 nM	43%	82%	44%	no decreases in the body weights of the mice were observed	no findings of toxicity observed
COc1ccc(C(N)=O)cc1C(=O)Nc1ccc(OC(F)(F)F)cc1 [Compound 1-2-1, 3-N-(4-trifluoromethoxyphenyl)-4-methoxyisophthalamide]	> 100000 nM	2400 nM	68%	–	–	–	–
COc1ccc(C(N)=O)cc1C(=O)Nc1cccc(C(F)(F)F)c1F [Compound 1-3-8, 3-N-(2-fluoro-3-trifluoromethylphenyl)-4-methoxyisophthalamide]	> 50000 nM	350 nM	–	–	–	–	–
COc1ccccc1NC(=O)c1cc(C(N)=O)ccc1OC [Compound 1-3-10, 4-methoxy-3-N-(2-methoxyphenyl)isophthalamide]	> 50000 nM	760 nM	46%	–	–	–	–
COc1ccc(C(N)=O)cc1C(=O)Nc1ccccc1F [Compound 1-3-12, 3-N-(2-fluorophenyl)-4-methoxyisophthalamide]	> 50000 nM	2540 nM	27%	–	–	–	–
COc1ccc(C(N)=O)cc1C(=O)Nc1cc(C(F)(F)F)ccc1Cl [Compound 1-3-16, 3-N-(2-chloro-5-trifluoromethylphenyl)-4-methoxyisophthalamide]	> 50000 nM	4600 nM	80%	–	–	–	–
COc1cc(NC(=O)c2cc(C(N)=O)ccc2OC)cc(OC)c1 [Compound 1-3-18, 3-N-(3,5-dimethoxyphenyl)-4-methoxyisophthalamide]	> 50000 nM	1250 nM	29%	–	–	–	–
COc1ccc(C(N)=O)cc1C(=O)Nc1ccc(C(F)(F)F)cc1 [Compound 1-3-21, 4-methoxy-3-N-(4-trifluoromethylphenyl)isophthalamide]	> 50000 nM	5100 nM	71%	–	–	–	–
COc1ccc(C(N)=O)cc1C(=O)Nc1ccccc1C [Compound 1-3-23, 4-methoxy3-N-o-tolylisophthalamide]	> 50000 nM	2850 nM	27%	–	–	–	–
COc1ccc(C(N)=O)cc1C(=O)Nc1ccc(F)cc1F [Compound 1-3-24, 3-N-(2,4-difluorophenyl)-4-methoxyisophthalamide]	> 50000 nM	5190 nM	28%	–	–	–	–
COc1ccc(C(N)=O)cc1C(=O)Nc1ccc(Br)cc1Cl [Compound 1-3-41, 3-N-(4-bromo-2-chlorophenyl)-4-methoxyisophthalamide]	> 50000 nM	40 nM	82%	–	–	–	–
COc1ccc(C(N)=O)cc1C(=O)Nc1ccc(Br)cc1Br [Compound 1-3-45, 3-N-(2,4-dibromophenyl)-4-methoxyisophthalamide]	> 50000 nM	50 nM	31%	–	–	–	–
COc1ccc(C(N)=O)cc1/C=C/c1ccc(OC(F)(F)F)cc1 [Compound 2-1-1, 4-methoxy-3-[(E)-2-(4-trifluoromethoxyphenyl)vinyl]benzamide]	> 100000 nM	170 nM	93%	75%	37%	no decreases in the body weights of the mice were observed	no findings of toxicity observed
COc1ccc(C(=O)NC2CCCC2)cc1/C=C/c1ccc(OC(F)(F)F)cc1 [Compound 2-2-1, N-cyclopentyl-4-methoxy-3-[(E)-2-(4-trifluoromethoxy-phenyl)vinyl]benzamide]	> 50000 nM	3350 nM	60%	–	–	–	–
CNC(=O)c1ccc(OC)c(/C=C/c2ccc(OC(F)(F)F)cc2)c1 [Compound 2-2-2, 4-methoxy-N-methyl-3-[(E)-2-(4-trifluoromethoxyphenyl)-vinyl]-benzamide]	> 50000 nM	2270 nM	77%	–	–	–	–

Now from value to molecule, other results behind:

IC50 [2]	Structure (SMILES)	IC50 [1]	inhibition at 20 µM (HUVEC)	tumor growth inhibition rates (TGI) [3]	Decrease (%) in intratumor blood vessel density [4]	body weights of the mice [5]	findings of toxicity [5]
> 50000 nM	COc1ccc(C(N)=O)cc1C(=O)Nc1ccc(Br)cc1F [Compound 1-3-1, 3-N-(4-bromo-2-fluorophenyl)-4-methoxy-isophthalamide]	190 nM	–	–	–	–	–
> 50000 nM	COc1ccc(C(N)=O)cc1C(=O)Nc1cccc(Cl)c1Cl [Compound 1-3-2, 3-N-(2,3-dichlorophenyl)-4-methoxyisophthalamide]	150 nM	–	–	–	–	–
> 50000 nM	COc1ccc(C(N)=O)cc1C(=O)Nc1ccccc1OC(F)(F)F [Compound 1-3-5, 4-methoxy-3-N-(2-trifluoromethoxyphenyl)-isophthalamide]	140 nM	91%	–	–	–	–
> 50000 nM	COc1ccc(C(N)=O)cc1C(=O)Nc1cccc2c1CCCC2 [Compound 1-3-6, 4-methoxy-3-N-(5,6,7,8-tetrahydronaphthalen-1-yl)isophthalamide]	240 nM	46%	–	–	–	–
> 50000 nM	COc1ccc(C(N)=O)cc1C(=O)Nc1ccccc1Cl [Compound 1-3-7, 3-N-(2-chlorophenyl)-4-methoxyisophthalamide]	280 nM	67%	–	–	–	–
> 25000 nM	COc1ccc(C(N)=O)cc1C(=O)Nc1cc(C)c(F)cc1Cl [Compound 1-3-17, 3-N-(2-chloro-4-fluoro-5-methylphenyl)-4-methoxyisophthalamide]	1200 nM	80%	–	–	–	–
> 25000 nM	COc1ccc(C(N)=O)cc1C(=O)Nc1cccc2ncccc12 [Compound 1-3-39, 4-methoxy-3-N-quinolin-5-yl-isophthalamide]	2360 nM	20%	–	–	–	–
> 25000 nM	CCNC(=O)c1ccc(OC)c(/C=C/c2ccc(Cl)cc2)c1 [Compound 2-2-9, 3-[(E)-2-(4-chlorophenyl)-vinyl]-N-ethyl-4-methoxy-benzamide]	1410 nM	79%	–	–	–	–
